In US20180339976A1, “NOVEL TRIAZOLE DERIVATIVES” (priority 2015, published 2018):

Assay: Log P by HPLC on reversed phase columns (EEC directive 79/831 Annex V.A8)
Type: physicochemical
Details: for LogP: Table 2, epoxides of formula (XII), method [a]: LC-UV, acidic range, 0.1% formic acid in water and acetonitrile
Experimental: Measurement of Log P values was performed according to EEC directive 79/831 Annex V.A8 by HPLC (High Performance Liquid Chromatography) on reversed phase columns with the following methods: • ^[a]
If more than one Log P value is available within the same method, all the values are given and separated by “+”.
Lambda-max-values were determined using UV-spectra from 200 nm to 400 nm and the peak values of the chromatographic signals.

SMILES | chromatographic logP | LogP
Fc1cc(Cl)ccc1C1(Cc2cccnc2Cl)CO1 (stereo not drawn) [XII-1, 2-chloro-3-[[2-(4-chloro-2-fluoro-phenyl)oxiran-2-yl]methyl]pyridine] | 3.31 | 
Fc1cnccc1CC1(c2ccc(Cl)cc2)CO1 (stereo not drawn) [XII-2] |  | 2.65^[a]
Fc1cnccc1CC1(c2ccc(Cl)cc2Cl)CO1 (stereo not drawn) [XII-3] |  | 3.19^[a]
Fc1ccc(C2(Cc3ccncc3F)CO2)cc1 (stereo not drawn) [XII-4] |  | 2.23^[a]
Fc1ccc(Oc2ccc(C3(Cc4ccncc4F)CO3)cc2)c(F)c1 (stereo not drawn) [XII-5] |  | 3.37^[a]
Fc1ccc(C2(Cc3ccncc3F)CO2)c(F)c1 (stereo not drawn) [XII-6] |  | 2.38^[a]
Fc1cnccc1CC1(c2ccc(Oc3ccccc3)cc2)CO1 (stereo not drawn) [XII-7] |  | 3.37^[a]
Fc1cnccc1CC1(c2ccc(-c3ccccc3)cc2)CO1 (stereo not drawn) [XII-8] |  | 3.37^[a]
Clc1cc(CC2(c3ccc(Oc4ccccc4)cc3)CO2)ccn1 (stereo not drawn) [XII-9] |  | 3.37^[a]
Clc1ccc(C2(Cc3ccnc(Cl)c3)CO2)c(Cl)c1 (stereo not drawn) [XII-10] |  | 3.85^[a]
Fc1ccc(C2(Cc3ccnc(Cl)c3)CO2)c(F)c1 (stereo not drawn) [XII-11] |  | 2.93^[a]
Fc1ccc(Oc2ccc(C3(Cc4ccnc(Cl)c4)CO3)cc2)c(F)c1 (stereo not drawn) [XII-12] |  | 3.85^[a]
Clc1cc(CC2(c3ccc(-c4ccccc4)cc3)CO2)ccn1 (stereo not drawn) [XII-13] |  | 3.89^[a]
Fc1ccc(C2(Cc3ccnc(Cl)c3)CO2)cc1 (stereo not drawn) [XII-14] |  | 2.76^[a]
Clc1ccc(C2(Cc3ccnc(Cl)c3)CO2)cc1 (stereo not drawn) [XII-15] |  | 3.19^[a]
Fc1ccc(C2(Cc3cc(Cl)ncc3F)CO2)cc1 (stereo not drawn) [XII-16] |  | 3.15^[a]
Fc1cnc(Cl)cc1CC1(c2ccc(Cl)cc2)CO1 (stereo not drawn) [XII-17] |  | 3.56^[a]
Fc1cnc(Cl)cc1CC1(c2ccc(Oc3ccccc3)cc2)CO1 (stereo not drawn) [XII-18] |  | 4.23^[a]

SMILES | chromatographic logP | LogP
Fc1cnc(Cl)cc1CC1(c2ccc(Cl)cc2Cl)CO1 (stereo not drawn) [XII-19] |  | 4.17^[a]
Fc1ccc(C2(Cc3cc(Cl)ncc3F)CO2)c(F)c1 (stereo not drawn) [XII-20] |  | 3.24^[a]
Fc1ccc(Oc2ccc(C3(Cc4cc(Cl)ncc4F)CO3)cc2)c(F)c1 (stereo not drawn) [XII-21] |  | 4.17^[a]
Fc1cnc(Cl)cc1CC1(c2ccc(-c3ccccc3)cc2)CO1 (stereo not drawn) [XII-22] |  | 4.28^[a]
Clc1cccc(C2(Cc3cccnc3Cl)CO2)c1 (stereo not drawn) [XII-23] |  | 3.24^[a]
Clc1ccc(C2(Cc3cccnc3Cl)CO2)cc1 (stereo not drawn) [XII-24] |  | 3.25^[a]
FC(F)(F)c1ccc(C2(Cc3cccnc3Cl)CO2)cc1 (stereo not drawn) [XII-25] |  | 3.46^[a]
N#Cc1ccc(C2(Cc3cccnc3Cl)CO2)cc1 (stereo not drawn) [XII-26] |  | 2.35^[a]
Fc1ccc(C2(Cc3ccncc3Cl)CO2)cc1 (stereo not drawn) [XII-27] |  | 2.65^[a]
Clc1cnccc1CC1(c2ccc(-c3ccccc3)cc2)CO1 (stereo not drawn) [XII-28] |  | 3.85^[a]
Clc1cnccc1CC1(c2ccccc2Cl)CO1 (stereo not drawn) [XII-29] |  | 3.02^[a]
Clc1ccc(C2(Cc3ccncc3Cl)CO2)cc1 (stereo not drawn) [XII-30] |  | 3.15^[a]
Clc1ccc(C2(Cc3ccncc3Cl)CO2)c(Cl)c1 (stereo not drawn) [XII-31] |  | 3.06^[a]
Clc1cnccc1CC1(c2ccc(Oc3ccccc3)cc2)CO1 (stereo not drawn) [XII-32] |  | 3.80^[a]
Fc1ccc(Oc2ccc(C3(Cc4ccncc4Cl)CO3)cc2)c(F)c1 (stereo not drawn) [XII-33] |  | 3.80^[a]
Fc1ccc(C2(Cc3ccncc3Cl)CO2)c(F)c1 (stereo not drawn) [XII-34] |  | 2.76^[a]
CC(C)(C)c1noc(-c2ccc(C3(Cc4ccncc4Cl)CO3)cc2)n1 (stereo not drawn) [XII-65] |  | 4.25^[a]
Fc1cccc(F)c1C1(Cc2ccncc2Cl)CO1 (stereo not drawn) [XII-66] |  | 2.50^[a]
